Key:
[1] = tested on: anti OVA-specific IgG1 subclass antibody; assay: Adjuvant activity test: anti OVA-specific IgG1 subclass antibody in serum after subcutaneous immunization with OVA; assay type: in vivo, BALB/c mice; settings: dorsal-subcutaneous
Experimental: One week later, the secondary immunization was carried out by dorsal-subcutaneous administration of solutions similar to those of the above-mentioned (1) to (5) again. Two weeks from the secondary immunization, the whole blood and spleen were extracted under anesthesia, and the obtained serum sample was measured for anti OVA-specific IgG1 subclass antibody. A method for measurement of the anti OVA-specific IgG1 subclass antibody in Example 1, and the following Examples 2, 4, 7 to 10 and 13 to 16 is as follows.
To a 96 well plate was added 5 μg/ml OVA at 100 μl/well, and the mixture was incubated at 4° C. overnight. After incubation, the mixture was washed three times with 200 μl of PBS-T (PBS (phosphate buffered saline)+0.05% (v/v) Tween 20) per well, and blocked with 100 μl of 5% FCS (fatal calf serum)/PBS solution per well at room temperature for 1 to 2 hr. Thereafter, the mixture was washed three times with PBS-T (200 μl/well), a diluted serum sample (100 μl/well) or the same amount of 5% FCS/PBS solution as a control was added, and the mixture was incubated at 37° C. for 1 hr. Thereafter, the mixture was washed five times with PBS-T (200 μl/well), a diluted biotinylated anti-mouse IgG1 antibody (100 μl/well) was added, and the mixture was incubated at 37° C. for 45 min. Thereafter, the mixture was washed five times with PBS-T (200 μl/well), a diluted anti-biotin-HRP antibody was added (100 μl/well), and the mixture was incubated at 37° C. for another 30 min. Thereafter, the mixture was washed five times with PBS-T (200 μl/well), TMB substrate solution was added (100 μl/well), and the mixture was incubated at room temperature for 10 to 15 min. Thereafter, a reaction quenching liquid (2N sulfuric acid solution) was added (50 μl/well) to discontinue a color developing reaction, and the absorbance (OD Value=450 nm) was measured by a microplate reader.
One week later, the secondary immunization was carried out by dorsal-subcutaneous administration of solutions similar to those of the above-mentioned (1) to (6) again. Two weeks from the secondary immunization, the whole blood and spleen were extracted under anesthesia, and the obtained serum sample was measured for anti OVA-specific IgG1 subclass antibody.
8-Week-old female BALB/c mice were divided into groups (N=6), and each group was primarily immunized by dorsal-subcutaneous administration of (1) ovalbumin (OVA) ([…] administration group), (2) OVA (10 μg) and, as an adjuvant, N,N′-bis(2-heptylundecanoyl)-L-cystine dimethyl ester (SZ23) ([…]), (3) OVA (10 μg) and N,N′-bis(dodecanoyl)-L-cystine dimethyl ester (SZ24) ([…]), and (4) saline (saline single administration group), each per mouse. One week later, the secondary immunization was carried out by dorsal-subcutaneous administration of solutions similar to those of the above-mentioned (1) to (4) again. Two weeks from the secondary immunization, the whole blood was extracted under anesthesia, and the obtained serum sample was measured for anti OVA-specific IgG1 subclass antibody. SZ24 is disclosed in JP-A-4-230359, which is incorporated herein by reference in its entirety.
8-Week-old female BALB/c mice were divided into groups (N=6), and each group was primarily immunized by dorsal-subcutaneous administration of (1) ovalbumin (OVA) ([…] administration group), (2) OVA (10 μg) and, as an adjuvant, N,N′-bis(2-tetradecylhexadecanoyl)-L-cystine dimethyl ester (SZ37) (0.256 μmol) added to saline, (3) OVA (10 μg) and N,N′-bis(2-octadecyleicosanoyl)-L-cystine dimethyl ester (SZ38) (0.256 μmol) added to saline, (4) OVA (10 μg) and SZ37 (0.256 μmol) dissolved or dispersed in 5% αCD-added saline, and (5) OVA (10 μg) and SZ38 (0.256 μmol) dissolved or dispersed in 5% αCD-added saline, each per mouse. One week later, the secondary immunization was carried out by dorsal-subcutaneous administration of solutions or dispersions similar to those of the above-mentioned (1) to (5) again. […]

[2] = Dispersibility investigation test (turbidity, OD 650 nm; photograph); assay type: physicochemical; settings: for dispersion in 5% αCD-added saline (photograph) / dispersion in saline (photograph): after stirring; for dispersion in saline (photograph): 0.256 μmol in 1 mL saline
Experimental: N,N′-bis(2-tetradecylhexadecanoyl)-L-cystine dimethyl ester (SZ37) and N,N′-bis(2-octadecyleicosanoyl)-L-cystine dimethyl ester (SZ38) (0.256 μmol) were each dispensed to a 2 mL tube containing zirconia beads, saline or 5% α-cyclodextrin (hereinafter to be also simply referred to as αCD)-added saline (1 mL) was added, and the mixture was stirred. The absorbance (OD Value=650 nm) was measured by a microplate reader, and the turbidity was calculated as an index of dispersibility. The measurement method of the turbidity is as follows.
SZ37 and SZ38 (0.256 μmol) were each dispensed to a 2 mL tube containing zirconia beads, saline or 5% αCD-added saline (1 mL) was added, and the mixture was vigorously stirred three times under conditions of 3.15 seconds one time at 6000 rpm. The mixture was dispensed by 200 μL to a 96 well plate, and the absorbance (OD Value=650 nm) was measured by a microplate reader. As a control, kaolinite (1 mg) was dissolved in distilled water (1 L), and the absorbance (OD Value=650 nm) was measured by a microplate reader. The absorbance thereof (OD Value=650 nm) was defined to be turbidity: 1, and the turbidity of each sample was calculated from the ratio with the measured value of kaolinite.
Whether the dispersion state varies depending on the dispersion solvent when SZ37 and SZ38 are dispersed was studied. In the same manner as in Example 10, SZ37 and SZ38 were added 1% β-cyclodextrin (hereinafter to be also referred to simply as βCD)-added saline or 5% αCD-added saline, and the mixture was stirred. The absorbance (OD Value=650 nm) was measured by a microplate reader, and the turbidity was calculated as an index of dispersibility. The measurement method of turbidity as in Example 11.

[3] = 2.56 μmol in saline with OVA 10 μg, primary + secondary immunization, serum two weeks after, compared to OVA single administration group
[4] = 0.256 μmol dispersed in 5% αCD-added saline with OVA 10 μg, compared to OVA single administration group (OVA in saline)
[5] = 0.256 μmol in saline with OVA 10 μg, compared to OVA single administration group
[6] = 0.256 μmol in 1 mL 5% αCD-added saline
[7] = 0.256 μmol in 1 mL 5% αCD-added saline, compared to dispersion in saline
[8] = 5% αCD-added saline, compared to dispersion in 1% βCD-added saline
[9] = 0.256 μmol dispersed in 5% αCD-added saline with OVA 10 μg, compared to control (OVA in 5% αCD-added saline)

COC(=O)[C@H](CSSC[C@H](NC(=O)C(CCC(C)CC(C)(C)C)C(C)CC(C)(C)C)C(=O)OC)NC(=O)C(CCC(C)CC(C)(C)C)C(C)CC(C)(C)C (stereo partly drawn) [SZ23′, N,N′-bis[5,7,7-trimethyl-2-(1,3,3-trimethylbutyl)octanoyl]-L-cystine dimethyl ester]
production of anti OVA-specific IgG1 subclass antibody [1, 3]: significantly increased

CCCCCCCCCCCCCCC(CCCCCCCCCCCCCC)C(=O)N[C@@H](CSSC[C@H](NC(=O)C(CCCCCCCCCCCCCC)CCCCCCCCCCCCCC)C(=O)OC)C(=O)OC [SZ37, N,N′-bis(2-tetradecylhexadecanoyl)-L-cystine dimethyl ester]
production of anti OVA-specific IgG1 subclass antibody [1, 4]: significantly increased
production of anti OVA-specific IgG1 subclass antibody [1, 5]: did not increase significantly
dispersion in 5% αCD-added saline (photograph) [2, 6]: could be uniformly dispersed
turbidity (index of dispersibility) [2, 7]: significantly higher
dispersion in saline (photograph) [2]: could not be dispersed
turbidity (index of dispersibility) [2, 8]: significantly higher

COC(=O)[C@@H](N)CSSC[C@H](N)C(=O)OC [(CyssOMe)2, cystine dimethyl ester, reference compound]
production of anti OVA-specific IgG1 subclass antibody [1, 3]: did not show a significant difference

CCCCCCCCCCCCC(=O)N[C@@H](CSSC[C@H](NC(=O)CCCCCCCCCCCC)C(=O)OC)C(=O)OC [SZ34, N,N′-bis(tridecanoyl)-L-cystine dimethyl ester]
production of anti OVA-specific IgG1 subclass antibody [1, 9]: significantly increased
production of anti OVA-specific IgG1 subclass antibody [1, 3]: significantly increased

CCCCCCCCCCCC(=O)N[C@@H](CSSC[C@H](NC(=O)CCCCCCCCCCC)C(=O)OC)C(=O)OC [SZ24, N,N′-bis(dodecanoyl)-L-cystine dimethyl ester, reference compound]
production of anti OVA-specific IgG1 subclass antibody [1, 3]: did not show a significant difference

CCCCCCCCCCCCCCCC(=O)N[C@@H](CSSC[C@H](NC(=O)CCCCCCCCCCCCCCC)C(=O)OC)C(=O)OC [SZ22, N,N′-bis(hexadecanoyl)-L-cystine dimethyl ester]
production of anti OVA-specific IgG1 subclass antibody [1, 9]: significantly increased
production of anti OVA-specific IgG1 subclass antibody [1, 3]: significantly increased

CC(C)CCCCCCCCCCCCCCC(=O)O [ISA, isostearic acid, reference compound]
production of anti OVA-specific IgG1 subclass antibody ([1]; 5.12 μmol in saline with OVA 10 μg, compared to OVA single administration group): did not show a significant difference

CCCCCCCCCCCCCCCCCCC(CCCCCCCCCCCCCCCCCC)C(=O)N[C@@H](CSSC[C@H](NC(=O)C(CCCCCCCCCCCCCCCCCC)CCCCCCCCCCCCCCCCCC)C(=O)OC)C(=O)OC [SZ38, N,N′-bis(2-octadecyleicosanoyl)-L-cystine dimethyl ester]
production of anti OVA-specific IgG1 subclass antibody [1, 4]: significantly increased
production of anti OVA-specific IgG1 subclass antibody [1, 5]: did not increase significantly
dispersion in 5% αCD-added saline (photograph) [2, 6]: could be uniformly dispersed
turbidity (index of dispersibility) [2, 7]: significantly higher
dispersion in saline (photograph) [2]: could not be dispersed
turbidity (index of dispersibility) [2, 8]: significantly higher

CCCCCCCCCCCCCCCCCCCCCCCCCCCCCC(=O)N[C@@H](CSSC[C@H](NC(=O)CCCCCCCCCCCCCCCCCCCCCCCCCCCCC)C(=O)OC)C(=O)OC [SZ36, N,N′-bis(triacontanoyl)-L-cystine dimethyl ester]
production of anti OVA-specific IgG1 subclass antibody [1, 9]: significantly increased
production of anti OVA-specific IgG1 subclass antibody [1, 3]: significantly increased

CCCCCCCCCCCCCCCCCCCCCC(=O)N[C@@H](CSSC[C@H](NC(=O)CCCCCCCCCCCCCCCCCCCCC)C(=O)OC)C(=O)OC [SZ66, N,N′-bis(docosanoyl)-L-cystine dimethyl ester]
production of anti OVA-specific IgG1 subclass antibody [1, 9]: significantly increased

CCCCC/C=C\C/C=C\CCCCCCCC(=O)N[C@@H](CSSC[C@H](NC(=O)CCCCCCC/C=C\C/C=C\CCCCC)C(=O)OC)C(=O)OC [SZ28, N,N′-bis(linoleoyl)-L-cystine dimethyl ester, reference compound]
production of anti OVA-specific IgG1 subclass antibody [1, 3]: did not increase significantly

Source: patent publication US10100008B2, “Immunostimulating agent” (AJINOMOTO CO., INC., priority 2014, dated 2018)
